{
  "source": "paper PMC3050001",
  "about": "(Science (New York, N.Y.), 2010)",
  "key": {"[1]": {"system": "synchronized parasites at ring, trophozoite and schizont stages", "test": "In vitro drug sensitivity assay with synchronized parasites", "format": "cell-based, Plasmodium falciparum"}, "[2]": {"system": "P. berghei", "format": "in vivo, Plasmodium berghei (mice)"}, "[3]": {"system": "P. vivax clinical isolates", "test": "Ex vivo sensitivity assay with fresh clinical isolates"}, "[4]": {"system": "P. falciparum parasites (Dd2, NITD609-R^Dd2)", "test": "[35S]-Met/Cys incorporation assay", "format": "cell-based, Plasmodium falciparum", "conditions": "P. falciparum Dd2, within one hour"}, "[5]": {"system": "Dd2^attB parasites expressing mutant PfATP4", "test": "Growth inhibition of transgenic pfatp4 lines"}, "[6]": {"format": "in vivo, mice and rats"}, "[7]": {"conditions": "miniaturized Ames assay"}, "[8]": {"system": "panel of human G-protein coupled receptors, enzymes and ion channels"}, "[9]": {"conditions": "male rats, oral, daily for 14 days"}, "[10]": {"test": "in vivo", "conditions": "male, rat, po"}, "[11]": {"test": "physchem"}, "[12]": {"system": "P. falciparum clinical isolates", "test": "Ex vivo sensitivity assay with fresh clinical isolates", "conditions": "Plasmodium falciparum, in Homo sapiens"}, "[13]": {"system": "drug-selected Dd2 parasites (NITD609-R^Dd2, NITD678-R^Dd2)", "conditions": "for cross-resistance in spiroindolone-selected mutants: NITD609- and NITD678-selected Dd2 mutants"}, "[14]": {"system": "P. falciparum strains", "conditions": "culture-adapted P. falciparum strains incl. drug-resistant strains"}},
  "data": [
    {"smiles": "CO[C@H]1O[C@@H]2O[C@@]3(C)CC[C@H]4[C@H](C)CC[C@@H]([C@H]1C)[C@@]24OO3", "note": "[Artemether, reference compound]", "values": [
      {"measurement": "inhibition of parasite growth", "setting": "[1]; treatment at 8 nM for 6 hours", "result": "Strong inhibition"},
      {"measurement": "Survival", "setting": "[2]; 1 × 100 mg/kg oral, control animals 6–7 days", "result": 7.6, "unit": "days"}
    ]},
    {"smiles": "CCN(CC)CCCC(C)Nc1ccnc2cc(Cl)ccc12", "note": "(stereo not drawn) [Chloroquine, reference compound]", "values": [
      {"measurement": "stage-specific sensitivity (ring vs trophozoite)", "setting": "[3]; P. vivax, drug exposure 20 h, growth determined after 42 hours", "result": "significant stage-specific sensitivity"}
    ]},
    {"smiles": "OC(c1cc(C(F)(F)F)nc2c(C(F)(F)F)cccc12)C1CCCCN1", "note": "(stereo not drawn) [Mefloquine]", "values": [
      {"measurement": "effect on protein synthesis ([35S]-Met/Cys incorporation)", "setting": "[4]", "result": "only showed a nominal decrease"},
      {"measurement": "potency against wild-type vs transgenic strains", "setting": "[5]", "result": "equivalent potency"}
    ]},
    {"smiles": "C[C@H]1Cc2c([nH]c3cc(Cl)c(F)cc23)[C@@]2(N1)C(=O)Nc1ccc(Cl)cc12", "note": "[NITD609]", "values": [
      {"measurement": "sensitivity of parasite blood stages", "setting": "[1]; high concentration, ≈100 × IC50 value", "result": "all stages (rings, trophozoites and schizonts) were similarly sensitive"},
      {"measurement": "sensitivity of parasite blood stages", "setting": "[1]; low concentrations, ≈1 or 10 × IC50 value", "result": "schizonts were the most susceptible"},
      {"measurement": "effect on protein synthesis ([35S]-Met/Cys incorporation)", "setting": "[4]", "result": "effectively blocked protein synthesis"},
      {"measurement": "volume of distribution", "setting": "[6]; mice and rats, oral and intravenous administration", "result": "moderate"},
      {"measurement": "bioavailability", "setting": "[6]; orally administered", "result": "excellent"},
      {"measurement": "half-life", "setting": "[6]; orally administered", "result": "long"},
      {"measurement": "oral absorption", "setting": "[6]; orally administered", "result": "well absorbed"},
      {"measurement": "ED90", "setting": "[2]; oral, P. berghei mouse model", "result": 2.7, "unit": "mg/kg"},
      {"measurement": "intrinsic mutagenic activity", "setting": "[7]", "result": "lacked intrinsic mutagenic activity"},
      {"measurement": "binding to off-target panel", "setting": "[8]", "result": "no significant binding"},
      {"measurement": "adverse events / histopathological findings", "setting": "[9]", "result": "no adverse events or significant histopathological findings were observed"},
      {"measurement": "AUC(0-t)", "setting": "[10]", "result": "29400 to 56500", "unit": "ng·h/mL"},
      {"measurement": "logD", "setting": "[11]; pH 7.4", "result": 4.6},
      {"measurement": "pKa", "setting": "[11]; pKa^2", "result": 10.7},
      {"measurement": "IC50", "setting": "[3]; Plasmodium vivax, in Homo sapiens", "result": "< 10", "unit": "nM"},
      {"measurement": "IC50", "setting": "[12]", "result": "< 10", "unit": "nM"},
      {"measurement": "IC50", "setting": "[13]; Plasmodium falciparum, DD2, read-out: mean IC50 of drug-selected parasites", "result": "3 to 11", "unit": "nM"},
      {"measurement": "IC50", "setting": "[14]", "result": "0.5 to 1.4", "unit": "nM"}
    ]},
    {"smiles": "COc1ccc(C[C@H]2NC[C@H](O)[C@H]2OC(C)=O)cc1", "note": "[anisomycin]", "values": [
      {"measurement": "effect on protein synthesis ([35S]-Met/Cys incorporation)", "setting": "[4]", "result": "A similar effect was observed"}
    ]},
    {"smiles": "C[C@@H]1CC[C@H]2[C@@H](C)C(=O)O[C@@H]3O[C@@]4(C)CC[C@@H]1[C@]32OO4", "note": "[artemisinin]", "values": [
      {"measurement": "effect on protein synthesis ([35S]-Met/Cys incorporation)", "setting": "[4]", "result": "only showed a nominal decrease"},
      {"measurement": "cross-resistance in spiroindolone-selected mutants", "setting": "[13]", "result": "None of the selected mutants showed cross-resistance"},
      {"measurement": "potency against wild-type vs transgenic strains", "setting": "[5]", "result": "equivalent potency"}
    ]},
    {"smiles": "C[C@@H]1C[C@@H]([C@H](O)CC2CC(=O)NC(=O)C2)C(=O)[C@@H](C)C1", "note": "[cycloheximide]", "values": [
      {"measurement": "effect on protein synthesis ([35S]-Met/Cys incorporation)", "setting": "[4]", "result": "A similar effect was observed"}
    ]},
    {"smiles": "CC(=O)C1=C(O)[C@@H]2[C@H]3c4c[nH]c5cccc(c45)C[C@H]3C(C)(C)N2C1=O", "note": "[cyclopiazonic acid]", "values": [
      {"measurement": "cross-resistance in spiroindolone-selected mutants", "setting": "[13]", "result": "no cross-resistance"}
    ]},
    {"smiles": "C/C=C(/C)C(=O)O[C@H]1C(C)=C2[C@H]([C@@H]1OC(=O)CCCCCCC)[C@@](C)(OC(C)=O)C[C@H](OC(=O)CCC)[C@@]1(O)[C@H]2OC(=O)[C@@]1(C)O", "note": "[thapsigargin]", "values": [
      {"measurement": "cross-resistance in spiroindolone-selected mutants", "setting": "[13]", "result": "no cross-resistance"}
    ]}
  ]
}
